Laboratory results from US10245261B2, “Substituted indol-5-ol derivatives and their therapeutic applications” (NantBioScience, Inc., priority 2013, dated 2019).

Key:
[1] = test system: NCI 60 cancer cell line panel; assay: NCI-60 DTP Human Tumor Cell Line Panel, SRB growth inhibition; format: cell-based; conditions: cell lines from the NCI 60 panel
Method: The human tumor cell lines of the cancer screening panel are grown in RPMI 1640 medium containing 5% fetal bovine serum and 2 mM L-glutamine. For a typical screening experiment, cells are inoculated into 96 well microtiter plates in 100 μL at plating densities ranging from 5,000 to 40,000 cells/well depending on the doubling time of individual cell lines. After cell inoculation, the microtiter plates are incubated at 37° C., 5% CO2, 95% air and 100% relative humidity for 24 h prior to addition of experimental drugs.
After 24 h, two plates of each cell line are fixed in situ with TCA, to represent a measurement of the cell population for each cell line at the time of drug addition (Tz). Experimental drugs are solubilized in dimethyl sulfoxide at 400-fold the desired final maximum test concentration and stored frozen prior to use. At the time of drug addition, an aliquot of frozen concentrate is thawed and diluted to twice the desired final maximum test concentration with complete medium containing 50 μg/ml gentamicin. Additional four, 10-fold or ½ log serial dilutions are made to provide a total of five drug concentrations plus control. Aliquots of 100 μl of these different drug dilutions are added to the appropriate microtiter wells already containing 100 μl of medium, resulting in the required final drug concentrations.
Following drug addition, the plates are incubated for an additional 48 h at 37° C., 5% CO2, 95% air, and 100% relative humidity. For adherent cells, the assay is terminated by the addition of cold TCA. Cells are fixed in situ by the gentle addition of 50 μl of cold 50% (w/v) TCA (final concentration, 10% TCA) and incubated for 60 minutes at 4° C. The supernatant is discarded, and the plates are washed five times with tap water and air dried. Sulforhodamine B (SRB) solution (100 μl) at 0.4% (w/v) in 1% acetic acid is added to each well, and plates are incubated for 10 minutes at room temperature. After staining, unbound dye is removed by washing five times with 1% acetic acid and the plates are air dried. Bound stain is subsequently solubilized with 10 mM trizma base, and the absorbance is read on an automated plate reader at a wavelength of 515 nm. For suspension cells, the methodology is the same except that the assay is terminated by fixing settled cells at the bottom of the wells by gently adding 50 μl of 80% TCA (final concentration, 16% TCA). Using the seven absorbance measurements [time zero, (Tz), control growth, (C), and test growth in the presence of drug at the five concentration levels (Ti)], the percentage growth is calculated at each of the drug concentrations levels. Percentage growth inhibition is calculated as: [(Ti−Tz)/(C−Tz)]×100 for concentrations for which Ti>/=Tz [(Ti−Tz)/Tz]×100 for concentrations for which Ti<Tz.
Three dose response parameters are calculated for each experimental agent.

[2] = test system: TT human Thyroid carcinoma xenograft; assay: Thyroid carcinoma xenograft; format: in vivo, mouse
Method: This example assesses Compound 10, 53 and 88's anti-tumor activity using a SCID mouse xenograft models for TT human Thyroid carcinoma xenograft (FIGS. 65 to 69.)
On the appropriate days, each animal in an appropriate group will receive a specific amount of Compound 10 either at 50 or 100 mg/kg, and the dosing volume is 10 ml/kg by oral gavage as indicated. Dosing schedule will be once daily for 30 days.
On the appropriate days, each animal in an appropriate group will receive a specific amount of Compound 53 either at 50 or 100 mg/kg, and the dosing volume is 10 ml/kg by oral gavage as indicated. Dosing schedule will be once daily for 30 days.
Dosing schedule will be once daily for 30 days.

[3] = test system: human MIAPaCa-2 pancreatic carcinoma xenograft; assay: Pancreatic carcinoma xenograft in athymic nude mice; format: in vivo, mouse; conditions: MIAPaCa-2 xenograft
Method: The objective of the third study was to evaluate antitumor activities of novel multiple-kinase inhibitor NTW-3475 in human MIAPaCa-2 pancreatic carcinoma xenograft in athymic nude-Faxn1 mice.
Four animals were randomly assigned to study groups. Each animal was weighed, and then injected subcutaneously in the left and right flank area with 0.1 ml of 5.0×10^7 MIAPaCa-2 cells per mL.
Each test or control animal was on a 5-day on, two-day off for two cycles treatment schedule with negative control vehicle, positive control Abraxane at 20 mg/kg or 25, 50 mg/kg of NTW-3475. Tumor growth was measured with a digital hand held caliper twice weekly (once tumor emerges) prior to the first dosing and then two to three times weekly until euthanized.
The objective of the third study was to evaluate antitumor activities of novel multiple-kinase inhibitor Compound 10, 11, 12, 53, 68, 82, 83, 88, and 90 in human MIAPaCa-2 pancreatic carcinoma xenograft in athymic nude-Faxn1 mice.
Each test or control animal was on a 5-day on, two-day off for three cycles treatment schedule with negative control vehicle or 40 mg/kg of Compound 10, 11, 12, 53, 68, 82, 83, 88 and 90. Tumor growth was measured with a digital hand held caliper twice weekly (once tumor emerges) prior to the first dosing and then two to three times weekly until euthanized.

[4] = test system: human K562 chronic myelogenous leukemia (CML) xenograft; assay: CML xenograft model in female SCID mice; format: in vivo, mouse
Method: The objective of the second study was to evaluate antitumor activities of novel multiple-kinase inhibitor NTW-3475 in human K562 chronic myelogenous leukemia (CML) xenograft model in female SCID mice.
Four to six animals were randomly assigned to study groups. Each animal was weighed, and then injected subcutaneously in the left and right flank area with 0.1 ml of 8.0×10^7 K562 cells per mL.
(§1) Each test or control animal was on a 5-day on, two-day off for two cycles treatment schedule. Tumor growth was measured with a digital hand held caliper twice weekly (once tumor emerges) prior to the first dosing and then two to three times weekly until euthanized. Animals were weighed prior to tumor cell injection, prior to dosing, two to three times weekly with tumor growth measurements, and prior to euthanasia.
This example illustrated antitumor activities of Compound 10 and 11 in human K562 chronic myelogenous leukemia (CML) xenograft model in female SCID mice.
On the appropriate days, each animal in an appropriate group will receive a specific amount of test article either at 75 or 100 mg/kg, and the dosing volume is 10 ml/kg by oral gavage as indicated. Dosing schedule will be once daily for 10 days (qd×10, 5 days on and 2 days off for 2 cycles).

[5] = test system: AN3 human endometrial carcinoma xenograft; assay: Endometrial carcinoma xenograft; format: in vivo, mouse
[6] = test system: human MV411 human acute myelogenous leukemia (AML) xenograft; assay: AML xenograft model in female SCID mice; format: in vivo, mouse
Method: The objective of the first study was to evaluate antitumor activities of the novel multiple-kinase inhibitor NTW-3475 against human MV411 human acute myelogenous leukemia (AML) xenograft model in female SCID mice.
Four or six animals were randomly assigned to each study group. Each animal was injected subcutaneously in the left and right flank area with 0.1 ml of 1.0×10^8 MV411 cells per mL.
as §1, with “animal was placed on a” for “animal was on a”, “two cycles of vehicle negative control or 25, 50 mg/kg of NTW-3475. Tumor growth” for “two cycles treatment schedule. Tumor growth”
The objective of the first study was to evaluate antitumor activities of the novel multiple-kinase inhibitor Compounds 11, 68, and 82 against human MV411 human acute myelogenous leukemia (AML) xenograft model in female SCID mice.
as §1, with “animal was placed on a” for “animal was on a”, “two cycles of vehicle negative control or 25, 50 mg/kg of compound. Tumor growth” for “two cycles treatment schedule. Tumor growth”

Cc1cc2c(F)c(Oc3nc(Nc4cc(C5CC5)[nH]n4)cc(N4CCN(C)CC4)n3)cc(F)c2[nH]1 [NTW-3475]
antiproliferative activity [1]: strong antiproliferative activity | anti-tumor effect [2]: anti-tumor effect | anti-tumor effect in combination with Abraxane ([3]; combination with Abraxane): anti-tumor effect | anti-tumor effect ([3]; nude mice, single agent): strong anti-tumor effect | anti-tumor effect [4]: strong anti-tumor effect | anti-tumor effect [5]: anti-tumor effect | anti-tumor effect [6]: strong anti-tumor effect | body weight change [6]: minimal body weight lost
